The values below come from patent US20150065456A1, “AGENT FOR TREATMENT AND PREVENTION OF CANCER” (Daiichi Sankyo Company, Limited, priority 2013, published 2015).

SMILES strings stand for the structures. Where two headings read alike, the source gives them in different places.

Data set [1] concerns subjects with symptomatic venous thromboembolism (VTE). Briefly: Hokusai VTE phase 3 clinical study: investigator-reported malignancies clinically evident post-randomization. Format: in vivo, human. The note with it: for All Subjects with a Malignancy Event, HR: edoxaban vs warfarin, Cox proportional hazards model. Here is the method: The study was a randomized, double-blind, clinical study, in which subjects with symptomatic venous thromboembolism (VTE), which included PE, with or without deep venous thrombosis (DVT), or DVT only, were treated with either edoxaban or warfarin, a Vitamin K antagonist, which is an indirect inhibitor of coagulation. […] The subjects participating in the study were adult male and female patients presenting with acute, symptomatic DVT involving popliteal, femoral, or ileac veins, or PE requiring anti-thrombotic therapy. Patients with various types of cancer were among the subjects who were treated in this study, so long as long term treatment with heparin was not anticipated as a treatment regimen for such patients. This clinical study is named Hokusai-VTE and is the largest single phase 3 clinical study in the treatment and prevention of recurrence of VTE using an FXa inhibitor such as edoxaban. More than 8,250 patients were enrolled in the study from more than 400 clinical sites across 38 countries worldwide. The Hokusai-VTE clinical study was designed to reflect clinical practice, using a standard heparin lead-in and providing a flexible treatment duration of three, six or twelve months. This study design allowed the evaluation of patients with a broad range of risks, including patients with moderate or severe conditions of PE and DVT. […] (See, Example 1, infra).
The study (Hokusai VTE Clinical Study) constituted a phase 3, randomized, double-blind, double-dummy, parallel-group, multi-center, multi-national study for the evaluation of efficacy and safety of (LMW) heparin/edoxaban versus (LMW) heparin/warfarin in subjects with symptomatic deep-vein thrombosis and/or pulmonary embolism. The study indication related to the reduction of the risk of symptomatic recurrent venous thromboembolic complications in patients with acute symptomatic deep vein thrombosis (DVT) and/or pulmonary embolism (PE). […] Accordingly, the nature of the study was the use of edoxaban as direct inhibitor of Factor Xa in the treatment of VTE.
Following stratification and treatment allocation as described above, all patients were randomized to either a standard of care (SOC) treatment regimen, i.e., heparin+warfarin, until the international normalized ratio (INR) was between 2-3, followed by warfarin alone; or an edoxaban treatment regimen, i.e., heparin for 5 days followed by edoxaban (as the free base) at a dose of 60-mg QD (or 30-mg QD, in the low exposure group). This study aimed to treat all patients for the entire 12 month period following randomization. Ultimately, the evolving nature of the patient's clinical status and changes in the risk/benefit over time determined the length of treatment for a given patient. Irrespective of actual treatment duration, all patients were followed for the entire 12 months after randomization.
Edoxaban was administered in 30 and 60 mg dose-strengths in tablet form. Warfarin was administered in 1, 2.5 and 5 mg dose-strengths. Matching placebos were used for each of the test drugs. Edoxaban and warfarin were administered orally (PO). Enoxaparin was administered by subcutaneous (SC) injection.
The study was an event-driven, Phase 3, multi-national, multi-center, randomized, double-blind, matching placebo, parallel-group non-inferiority study for efficacy. The total study period after randomization was 12 months in duration. Ideally, all subjects remained on study treatment throughout this period. However, mitigating factors related to the subject's clinical status could influence the total duration of treatment a given subject actually received (See, Treatment Arms, below). Nevertheless, all subjects were administered a minimum of three months' treatment consistent with current ACCP Guidelines.

The conditions of data set [2]: rats; cited from earlier work.
The conditions of data set [3]: monkeys; cited from earlier work.
For data set [4] the following is noted: cited from earlier work.
Where [5] appears, read: Overall Study Period (up to 12 months).

Turning to `CN1CCc2nc(C(=O)N[C@@H]3C[C@@H](C(=O)N(C)C)CC[C@@H]3NC(=O)C(=O)Nc3ccc(Cl)cn3)sc2C1` [Edoxaban], the “Kaplan-Meier cumulative incidence (%) of new or recurrent malignancies versus warfarin-treated subjects” value is recorded as “significant decrease” in data set [1] (FIG. 1, treatment +30 days study period, 390 days from initial study drug administration) and “significant decrease” in data set [1] (FIG. 2, overall study period, about 360 days from initial study drug administration). Besides, the “All Subjects with a Malignancy Event, (%)” value (“All Subjects … (%)” for short) is listed as “(1.6) %” in data set [1] (On-Treatment Study Period), “(2.8) %” in data set [1] (setting [5]) and “(2.4) %” in data set [1] (Treatment+30 Days Study Period). Also, the “Leukemia, Lymphoma, and Other Blood Malignancies, (%)” value (“Leukemia, Lymphoma … (%)” for short) in data set [1] (On-Treatment Study Period) was “(<0.1) %”; in data set [1] (setting [5]), “(0.2) %”; in data set [1] (Treatment+30 Days Study Period) it was “(0.1) %”. Further, the results for the “Malignancy diagnosed as a result of work-up for anemia or bleeding: No, (%)” value (“Malignancy diagnosed as a result … No, (%)” for short) in data set [1] (On-Treatment Study Period), in data set [1] (setting [5]) and in data set [1] (Treatment+30 Days Study Period) were “(1.4) %”, “(2.2) %” and “(1.8) %”, respectively. Also, the entries for the “Malignancy diagnosed as a result of work-up for anemia or bleeding: Yes, (%)” value (shortened to “Malignancy diagnosed as a result … Yes, (%)”) in data set [1] (On-Treatment Study Period), in data set [1] (setting [5]) and in data set [1] (Treatment+30 Days Study Period) were “(0.2) %”, “(0.6) %” and “(0.6) %”, respectively. Also, the entries for the “Solid Tumor, (%)” value in data set [1] (On-Treatment Study Period), in data set [1] (setting [5]) and in data set [1] (Treatment+30 Days Study Period) were “(1.5) %”, “(2.7) %” and “(2.3) %”, respectively. For the same compound, the “All Subjects with a Malignancy Event, HR” value was determined as 0.73 in data set [1] (On-Treatment Study Period), 0.85 in data set [1] (Overall Study Period) and 0.84 in data set [1] (Treatment+30 Days Study Period). Moreover, the oral bioavailability result in data set [2], in data set [3] and in data set [4] (human subjects) was “orally bioavailable” each time. For the same compound, the safety and tolerability entry in data set [4] (doses of up to 90-mg per day) was “generally safe and well tolerated”.
`CC(=O)CC(c1ccccc1)c1c(O)c2ccccc2oc1=O` (stereo not drawn) [Warfarin, warfarin, reference compound]: in data set [1] (On-Treatment Study Period), the “All Subjects … (%)” value was found to be 2.2%; the “Leukemia, Lymphoma … (%)” value worked out at 0.1%; the “Malignancy diagnosed as a result … No, (%)” value worked out at 1.9%; the “Malignancy diagnosed as a result … Yes, (%)” value is 0.2%. The “Solid Tumor, (%)” value in data set [1] (On-Treatment Study Period) is 2.0%. In data set [1] (setting [5]), the “All Subjects … (%)” value came to 3.3%; the “Leukemia, Lymphoma … (%)” value came out at 0.2%; the “Malignancy diagnosed as a result … No, (%)” value is recorded as 2.8%; the “Malignancy diagnosed as a result … Yes, (%)” value came out at 0.5%. In addition, the “Solid Tumor, (%)” value in data set [1] (setting [5]) came to 3.1%. Further, in data set [1] (Treatment+30 Days Study Period), the “All Subjects … (%)” value was found to be 2.9%; the “Leukemia, Lymphoma … (%)” value is 0.2%; the “Malignancy diagnosed as a result … No, (%)” value amounted to 2.4%; the “Malignancy diagnosed as a result … Yes, (%)” value amounted to 0.5%. Moreover, in data set [1] (Treatment+30 Days Study Period), the “Solid Tumor, (%)” value was determined as 2.6%.
